Laboratory results: patent US20090215778A1, “Alpha-substituted Arylmethyl Piperazine Pyrazolo [1,5-alpha]Pyrimidine Amide Derivatives” (priority 2007, published 2009)

How the values were obtained:
HIV-1, NL4-3 strain = assay: Virus infection assay (virus entry and single-cycle infection); assay type: cell-based; settings: Human immunodeficiency virus 1, NL43, TZM-b1, read-out: Nl4
Procedure: TZM-b1 indicator cells were propagated in Dulbecco's Modified Eagle's Medium (DMEM) containing 10% fetal bovine serum (FBS, heat-inactivated) and supplemented with gentamicin (50 ug/mL).
This assay determines the effects of compounds on virus entry and single-cycle infection of cells. In this assay, virus (HIV-1, NL4-3 strain) is added to indicator cells expressing the CD4 receptor and both the CXCR4 and CCR5 co-receptor. The cells contain both a lac Z and a luciferase reporter gene under control of the viral LTR transcription promoter. The cells and virus are incubated together in the presence of various concentrations of test compounds. Successful infection of the cells by the virus permits activation of the reporter gene by the viral Tat transcription factor. The resulting beta-galactosidase or luciferase activity is quantitated using a chemiluminescent substrate and a luminescent plate reader.
Specifically, one day prior to infection, 1.5×10^4 TZM-b1 indicator cells were added to each well of a 96-well microtiter plate. On the day of the experiment, virus (MOI 0.01) in 50 μL of medium (Dulbecco's Modified Eagle's Medium) supplemented with DEAE-dextran at a final concentration of 80 μg/mL was added to cells along with various concentrations of test compound in 50 μL of Dulbecco's Modified Eagle's Medium. Control wells had virus alone. Following a 4 hr incubation at 37° C., complete media [DMEM supplemented with 10% fetal bovine serum (FBS, heat-inactivated) and gentamicin (50 ug/mL)] was added. One day post-infection the level of virus infection was quantitated by detection of β-galactosidase expression using the Gal-Screen system (Applied Biosystems).

[1] = molecular target: T1, HIV Env six-helix bundle (6HB) structure (Human immunodeficiency virus type 1 group M subtype B, UniProt P04579); assay: Six-helix bundle (6HB) assay; assay type: cell-based, HIV-1 (strain RF)
T1 construct: H9 cells chronically infected with HIV-1 (H9/HIV-1RF); endogenous in cells; host or cells: H9 cells chronically infected with HIV-1 strain RF (Env is made from the virus in the infected cells, not by transfection)
T1 sequence (P04579 32-519): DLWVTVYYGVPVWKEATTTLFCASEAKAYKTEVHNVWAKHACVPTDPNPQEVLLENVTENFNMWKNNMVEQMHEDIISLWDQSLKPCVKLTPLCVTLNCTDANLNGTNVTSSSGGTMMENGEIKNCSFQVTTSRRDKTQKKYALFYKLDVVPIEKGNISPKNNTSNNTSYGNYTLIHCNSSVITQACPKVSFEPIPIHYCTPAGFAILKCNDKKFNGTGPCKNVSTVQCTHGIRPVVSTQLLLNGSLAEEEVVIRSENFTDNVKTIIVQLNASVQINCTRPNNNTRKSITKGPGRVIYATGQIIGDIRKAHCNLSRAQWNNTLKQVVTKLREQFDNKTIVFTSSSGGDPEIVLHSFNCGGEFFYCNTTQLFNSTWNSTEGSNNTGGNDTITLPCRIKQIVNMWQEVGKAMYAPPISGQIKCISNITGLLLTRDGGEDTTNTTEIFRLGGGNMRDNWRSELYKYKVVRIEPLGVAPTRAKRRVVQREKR
T1 sequence (P04579 520-865): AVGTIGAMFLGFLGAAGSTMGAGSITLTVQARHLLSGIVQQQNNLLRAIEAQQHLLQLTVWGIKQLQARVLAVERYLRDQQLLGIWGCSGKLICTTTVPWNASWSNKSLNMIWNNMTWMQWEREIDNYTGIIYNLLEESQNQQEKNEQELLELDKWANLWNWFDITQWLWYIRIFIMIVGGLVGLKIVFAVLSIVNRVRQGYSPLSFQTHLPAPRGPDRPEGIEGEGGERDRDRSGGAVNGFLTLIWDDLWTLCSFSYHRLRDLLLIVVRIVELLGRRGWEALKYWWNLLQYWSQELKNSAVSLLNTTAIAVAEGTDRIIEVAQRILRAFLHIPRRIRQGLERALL
Procedure: 3×10^6H9 cells were incubated with 1 mL of HIV-1 (strain RF) supplemented with 40 μg/mL of DEAE-dextran. Virus and cells were incubated together at 37° C. for 2-4 hours with sporadic shaking to resuspend cells. 10 mL of media (RPMI 1640 containing 10% fetal bovine serum and supplemented with 50 μg/mL gentamicin) was then added and the virus-cell coculture was incubated at 37° C. in a humidified 5% CO2 incubator. 3 days post-infection and every 2-3 days thereafter, the infected H9/HIV-1RF cells were centrifuged, the supernatant was removed, and the cells were resuspended at a density of 0.3×10^6 cells/mL in media (RPMI 1640 containing 10% fetal bovine serum and supplemented with 50 μg/mL gentamicin). Chronically infected H9/HIV-1RF cells were used in experiments starting 12-15 days after infection and up to 40 days post-infection.
This assay determines the effect of compounds on conformational changes in HIV envelope glycoprotein (Env) that are required in order for Env to mediate the fusion of the viral and cellular membranes during virus entry and infection. Specifically, this assay measures the effect of compounds on the formation of the HIV Env six-helix bundle (6HB) structure.
H9 cells chronically infected with HIV-1 (H9/HIV-1RF) were resuspended in Stain/Wash Buffer (1% bovine serum albumin, 0.1% sodium azide in phosphate-buffered saline) and aliquoted at 2.5×10^5 cells per well into 96-well V-bottom plates containing various concentrations of test compounds. Cells and compounds were incubated for 30 minutes at 37° C. Recombinant soluble CD4 (sCD4) was then added to a final concentration of 1 μg/mL. Negative control wells contained no sCD4 and no test compound. Positive control wells contained sCD4 but no test compound. The plate was incubated for 1 hour at 37° C. to allow the sCD4 to bind to HIV Env and induce conformational changes in the Env protein. Antibody that is specific for the HIV Env six-helix bundle conformation was then added (1 μL polyclonal rabbit serum per well), and the plate was incubated for an additional 1 hour at 37° C. to permit antibody binding. The cells were then washed once with Stain/Wash Buffer to remove compound and excess antibody. The cells were resuspended in Stain/Wash Buffer containing PE-labeled anti-rabbit secondary antibody (KPL) at 0.25 μg per well. The cells were incubated for 45 min at 4° C. to permit secondary antibody binding. Fluorescence was detected using a BD FACSArray™ bioanalyzer. Compounds that inhibited Env conformational changes were identified as those that decreased primary antibody binding to the six-helix bundle epitope resulting in a decrease in fluorescence signal.

Compound	IC50 (HIV-1, NL4-3 strain) [nM]	IC50 [1] [nM]
COc1ccc(-c2nc3c(C(=O)N4CCN(C(CO)c5cccc(N(C)C)c5)C[C@H]4C)cnn3c(C(F)(F)F)c2C)cc1 (stereo partly drawn) [methanone, [(2R)-4-[1-[3-(dimethylamino)phenyl]-2-hydroxyethyl]-2-methyl-1-piperazinyl][5-(4-methoxyphenyl)-6-methyl-7-(trifluoromethyl)pyrazolo[1,5-α]pyrimidin-3-yl]-]	< 1000	< 1000
COc1ccc(-c2nc3c(C(=O)N4CCN(C(CO)c5cc(C)cs5)C[C@H]4C)cnn3c(C(F)(F)F)c2C)cc1 (stereo partly drawn) [methanone, [(2R)-4-[2-hydroxy-1-(4-methyl-2-thienyl)ethyl]-2-methyl-1-piperazinyl][5-(4-methoxyphenyl)-6-methyl-7-(trifluoromethyl)pyrazolo[1,5-α]pyrimidin-3-yl]-]	< 1000	< 1000
COc1ccc(-c2nc3c(C(=O)N4CCN([C@@H](CO)c5ccco5)C[C@H]4C)cnn3c(C(F)(F)F)c2C)cc1 [methanone, [(2R)-4-[(1S)-1-(2-furanyl)-2-hydroxyethyl]-2-methyl-1-piperazinyl][5-(4-methoxyphenyl)-6-methyl-7-(trifluoromethyl)pyrazolo[1,5-α]pyrimidin-3-yl]-]	< 1000	< 1000
COc1ccc(-c2nc3c(C(=O)N4CCN([C@@H](C)c5cccc(NS(C)(=O)=O)c5)C[C@H]4C)cnn3c(C(F)(F)F)c2C)cc1 [methanesulfonamide, N-[3-[(1S)-1-[(3R)-4-[[5-(4-methoxyphenyl)-6-methyl-7-(trifluoromethyl)pyrazolo[1,5-α]pyrimidin-3-yl]carbonyl]-3-methyl-1-piperazinyl]ethyl]phenyl]-]	< 1000	< 1000
COc1ccc(-c2nc3c(C(=O)N4CCN([C@H](CO)c5ccc(C(C)=O)s5)C[C@H]4C)cnn3c(C(F)(F)F)c2C)cc1 [ethanone, 1-[5-[(1R)-2-hydroxy-1-[(3R)-4-[[5-(4-methoxyphenyl)-6-methyl-7-(trifluoromethyl)pyrazolo[1,5-α]pyrimidin-3-yl]carbonyl]-3-methyl-1-piperazinyl]ethyl]-2-thienyl]-]	1100 to 10000	< 1000
COc1ccc(-c2nc3c(C(=O)N4CCN(C(CO)c5cccc6c5OC(F)(F)O6)C[C@H]4C)cnn3c(C(F)(F)F)c2C)cc1 (stereo partly drawn) [methanone, [(2R)-4-[1-(2,2-difluoro-1,3-benzodioxol-4-yl)-2-hydroxyethyl]-2-methyl-1-piperazinyl][5-(4-methoxyphenyl)-6-methyl-7-(trifluoromethyl)pyrazolo[1,5-α]pyrimidin-3-yl]-]	< 1000	< 1000
COc1ccc(-c2nc3c(C(=O)N4CCN(C(CO)c5cccc(OC)c5)C[C@H]4C)cnn3c(C(F)(F)F)c2C)cc1 (stereo partly drawn) [methanone, [(2R)-4-[2-hydroxy-1-(3-methoxyphenyl)ethyl]-2-methyl-1-piperazinyl][5-(4-methoxyphenyl)-6-methyl-7-(trifluoromethyl)pyrazolo[1,5-α]pyrimidin-3-yl]-]	< 1000	< 1000
C=CCN(C)CC(c1ccccc1)N1CCN(C(=O)c2cnn3c(C(F)(F)F)c(C)c(-c4ccc(OC)cc4)nc23)[C@H](C)C1 (stereo partly drawn) [methanone, [5-(4-methoxyphenyl)-6-methyl-7-(trifluoromethyl)pyrazolo[1,5-α]pyrimidin-3-yl][(2R)-2-methyl-4-[2-(methyl-2-propen-1-ylamino)-1-phenylethyl]-1-piperazinyl]]	< 1000	< 1000
COc1ccc(-c2nc3c(C(=O)N4CCN([C@H](CO)c5c(C)noc5C)C[C@H]4C)cnn3c(C(F)(F)F)c2C)cc1 [methanone, [(2R)-4-[(1S)-1-(3,5-dimethyl-4-isoxazolyl)-2-hydroxyethyl]-2-methyl-1-piperazinyl][5-(4-methoxyphenyl)-6-methyl-7-(trifluoromethyl)pyrazolo[1,5-α]pyrimidin-3-yl]-]	1100 to 10000	1100 to 10000
COc1ccc(-c2nc3c(C(=O)N4CCN(C(CO)c5ccc(C(=O)N(C)C)s5)C[C@H]4C)cnn3c(C(F)(F)F)c2C)cc1 (stereo partly drawn) [2-thiophenecarboxamide, 5-[2-hydroxy-1-[(3R)-4-[[5-(4-methoxyphenyl)-6-methyl-7-(trifluoromethyl)pyrazolo[1,5-α]pyrimidin-3-yl]carbonyl]-3-methyl-1-piperazinyl]ethyl]-N,N-dimethyl-]	> 10100	> 10100
COc1ccc(-c2nc3c(C(=O)N4CCN(C(CO)c5cccc(NC(N)=O)c5)C[C@H]4C)cnn3c(C(F)(F)F)c2C)cc1 (stereo partly drawn) [urea, N-[3-[2-hydroxy-1-[(3R)-4-[[5-(4-methoxyphenyl)-6-methyl-7-(trifluoromethyl)pyrazolo[1,5-α]pyrimidin-3-yl]carbonyl]-3-methyl-1-piperazinyl]ethyl]phenyl]-]	1100 to 10000	< 1000
COc1ccc(-c2nc3c(C(=O)N4CCN([C@@H](C)c5ccc(S(C)(=O)=O)cc5)C[C@H]4C)cnn3c(C(F)(F)F)c2C)cc1 [methanone, [5-(4-methoxyphenyl)-6-methyl-7-(trifluoromethyl)pyrazolo[1,5-α]pyrimidin-3-yl][(2R)-2-methyl-4-[(1S)-1-[4-(methylsulfonyl)phenyl]ethyl]-1-piperazinyl]-]	1100 to 10000	1100 to 10000
COc1ccc(-c2nc3c(C(=O)N4CCN(C(CO)c5ccccc5F)C[C@H]4C)cnn3c(C(F)(F)F)c2C)cc1 (stereo partly drawn) [methanone, [(2R)-4-[1-(2-fluorophenyl)-2-hydroxyethyl]-2-methyl-1-piperazinyl][5-(4-methoxyphenyl)-6-methyl-7-(trifluoromethyl)pyrazolo[1,5-α]pyrimidin-3-yl]-]	< 1000	< 1000
COc1ccc(-c2nc3c(C(=O)N4CCN([C@@H](C)c5cccc(NC(=O)OC(C)(C)C)c5)C[C@H]4C)cnn3c(C(F)(F)F)c2C)cc1 [carbamic acid, N-[3-[(1S)-1-[(3R)-4-[[5-(4-methoxyphenyl)-6-methyl-7-(trifluoromethyl)pyrazolo[1,5-α]pyrimidin-3-yl]carbonyl]-3-methyl-1-piperazinyl]ethyl]phenyl]-, 1,1-dimethylethyl ester]	> 10100	1100 to 10000
COc1ccc(-c2nc3c(C(=O)N4CCN([C@@H](C)c5cccs5)C[C@H]4C)cnn3c(C(F)(F)F)c2C)cc1 [methanone, [5-(4-methoxyphenyl)-6-methyl-7-(trifluoromethyl)pyrazolo[1,5-α]pyrimidin-3-yl][(2R)-2-methyl-4-[(1S)-1-(2-thienyl)ethyl]-1-piperazinyl]-]	< 1000	< 1000
COc1ccc(-c2nc3c(C(=O)N4CCN(C(CO)c5ccc(F)cc5OC)C[C@H]4C)cnn3c(C(F)(F)F)c2C)cc1 (stereo partly drawn) [methanone, [(2R)-4-[1-(4-fluoro-2-methoxyphenyl)-2-hydroxyethyl]-2-methyl-1-piperazinyl][5-(4-methoxyphenyl)-6-methyl-7-(trifluoromethyl)pyrazolo[1,5-α]pyrimidin-3-yl]-]	< 1000	< 1000
COc1ccc(-c2nc3c(C(=O)N4CCN(C(CO)c5ccc(F)cc5F)C[C@H]4C)cnn3c(C(F)(F)F)c2C)cc1 (stereo partly drawn) [methanone, [(2R)-4-[1-(2,4-difluorophenyl)-2-hydroxyethyl]-2-methyl-1-piperazinyl][5-(4-methoxyphenyl)-6-methyl-7-(trifluoromethyl)pyrazolo[1,5-α]pyrimidin-3-yl]-]	< 1000	< 1000
